Converted amounts (≈) assume the structure as drawn.
Key:
[1] = tested on: Mycobacterium tuberculosis; assay: microbe, parasite or virus in culture; settings: H37Rv ATCC 25618, 144 h
Description: Antimycobacterial activity against Mycobacterium tuberculosis H37Rv ATCC 25618 after 6 days by resazurin dye based assay

HepG2 = assay: Cytotoxicity against human HepG2 cells assessed as reduction in cell viability after 48 hrs by CellTiter Glo assay; format: cell-based; settings: HepG2, 48 h
[2] = Kinetic aqueous solubility of the compound by chemiluminescent nitrogen detection assay; format: physicochemical; settings: read-out: Kinetic_solubility
[3] = Permeability of the compound by PAMPA; format: physicochemical; settings: read-out: permeability
[4] = Lipophilicity, log D of the compound at pH 7.4 by chromatographic method; format: physicochemical; settings: buffer

Row | Compound | MIC [1] [µM] | IC50 (HepG2) [µM] | solubility kinetic [2] [µM] | Papp [3] [×10⁻⁶ cm/s] | chromatographic logD [4]
1 | COc1ccc2nc(C)cc(OCC(=O)Nc3cc(C)cc(C)c3)c2c1 | 1.9 (≈ 0.666 µg/mL) | 20 | – | – | –
2 | COc1ccc2nccc(OCC(=O)Nc3cc(C)cc(C)c3)c2c1 | 10 (≈ 3.36 µg/mL) | 50.1 | 51 (≈ 17.2 µg/mL) | 28 | 5.3
3 | Cc1cc(C)cc(NC(=O)Cn2ccc(=O)c3ccccc32)c1 | > 250 | 63.1 | 34 (≈ 10.4 µg/mL) | 45 | 3.54
4 | COc1ccc2nc(C)n(CC(=O)Nc3cc(C)cc(C)c3)c(=O)c2c1 | 250 (≈ 87.9 µg/mL) | > 100 | 74 (≈ 26 µg/mL) | 58 | 4.77
5 | COc1ccc2nc(C)cc(OCC(=O)Nc3cc(C)cc(C)c3)c2n1 | 3.8 (≈ 1.34 µg/mL) | > 100 | 19 (≈ 6.68 µg/mL) | 51 | 5.57
6 | Cc1cc(C)cc(NC(=O)COc2ccnc3ccccc23)c1 | > 80 | > 100 | 59 (≈ 18.1 µg/mL) | 46 | 5.03
7 | Cc1cc(C)cc(NC(=O)Cn2ccc(=O)c3ccc(Cl)cc32)c1 | > 250 | 100 | 86 (≈ 29.3 µg/mL) | 26 | 4.39
8 | COc1ccc2c(c1)c(=O)ccn2CC(=O)Nc1cc(C)cc(C)c1 | > 250 | > 100 | 30 (≈ 10.1 µg/mL) | 19 | 3.72
9 | COc1ccc2ncn(CC(=O)Nc3cc(C)cc(C)c3)c(=O)c2c1 | > 250 | > 100 | 8 (≈ 2.7 µg/mL) | – | 4.5
10 | COc1ccc2nc(C)nc(OCC(=O)Nc3cc(C)cc(C)c3)c2c1 | 1.25 (≈ 0.439 µg/mL) | > 100 | 3 (≈ 1.05 µg/mL) | 37 | 5.59
11 | Cc1cc(C)cc(NC(=O)Cn2cnc3ccccc3c2=O)c1 | > 250 | 79.4 | 20 (≈ 6.15 µg/mL) | 60 | 4.29
12 | NNC(=O)c1ccncc1 [ISONIAZID] | 3.6 (≈ 0.494 µg/mL) | – | – | – | –

Reference: ChEMBL document CHEMBL4041504, “Differential characterization using readily accessible NMR experiments of novel N- and O-alkylated quinolin-4-ol, 1,5-naphthyridin-4-ol and quinazolin-4-ol derivatives with antimycobacterial activity” (Eur J Med Chem, 2017)
